For test [1], the system named is OCI-Ly10 human DLBCL cells. Put plainly: OCI-Ly10 anti-proliferative activity (Resazurin). The settings on record: Homo sapiens, OCI-Ly10, 72 h, read-out: Proliferation Assay OCI-Ly10-20% FBS. In kind it is cell-based. The procedure:
Compounds were assayed for effects on the growth of OCI-Ly10 human DLBCL cells that are dependent on NFκB signalling. […] Cells were then plated at 7.5×10^3 cells per well in 96-well plates in varying concentrations of compound and incubated for 72 h at 37° C. An additional plate of cells to be used as the Day 0 read was seeded without compound addition, Resazurin was added to each well, incubated for 5 h and the fluorescence measured at 590 nm. After 72 h of compound treatment, Resazurin was added to each well of the compound treated plates, incubated for 5 h and the fluorescence measured at 590 nm. The IC50 was then calculated by subtracting the average Day 0 value from each well value from the treated plates, each treatment was then calculated as a percentage of the DMSO control and the percentages plotted against the inhibitor concentration to estimate the IC50 from log[Inhibitor] vs response using the Variable Slope model in Graphpad prism from Graphpad software (San Diego, Calif.).
For orientation: The colour change of resazurin is a common sign of viable cells or microbes.

Test [2] has as its target T1, Recombinant BTK^WT kinase (Homo sapiens, UniProt Q06187).
T1 construct: purchased Invitrogen
Put plainly: BTK WT binding affinity (LanthaScreen TR-FRET). The settings on record: Kinase Tracer 236, 5 h incubation. The procedure: BTK^WT binding affinity of each compound tested was determined using a time-resolved fluorescence resonance energy transfer (TR-FRET) methodology. 2.5 nM Recombinant BTK^WT kinase, varying concentrations of inhibitor, 2 nM LanthaScreen™ Eu anti-His Antibody and 15 nM Kinase Tracer 236 was incubated in 1× LanthaScreen™ Kinase Buffer A for 5 h. Recombinant BTK kinase and all LanthaScreen™ components were purchased from Invitrogen. Measurements were performed in a reaction volume of 30 μL using half-area 96-well assay plates. The TR-FRET signal was read on a plate reader with an excitation wavelength of 340 nm and detection wavelengths of 615 and 665 nm. Binding affinity was determined for each compound by measuring TR-FRET signal at various concentrations of compound and plotting the relative fluorescence units against the inhibitor concentration to estimate the IC50 from log[Inhibitor] vs response using the Variable Slope model in Graphpad prism from Graphpad software (San Diego, Calif.).

The next test addresses T2, Recombinant EGFR (Homo sapiens, UniProt P00533).
T2 construct: purchased Invitrogen
Put plainly: EGFR binding affinity (LanthaScreen TR-FRET). The following applies: Kinase Tracer 199, 5 h incubation. As to the method: EGFR binding affinity was determined using a time-resolved fluorescence resonance energy transfer (TR-FRET) methodology. […] Recombinant EGFR and all LanthaScreen™ components were purchased from Invitrogen. Measurements were performed in a reaction volume of 30 μL using half-area 96-well assay plates. […] Binding affinity was determined for each compound by measuring TR-FRET signal at various concentrations of compound and plotting the relative fluorescence units against the inhibitor concentration to estimate the IC50 from log[Inhibitor] vs response using the Variable Slope model in Graphpad prism from Graphpad software (San Diego, Calif.).

In test [3] the target is T3, Recombinant BTK^C481S kinase (Homo sapiens, UniProt Q06187, C481S).
T3 construct: purchased SignalChem
The experiment in a line: BTK C481S binding affinity (LanthaScreen TR-FRET). The settings on record: Kinase Tracer 236, 5 h incubation. The procedure:
BTK^C481S binding affinity of each compound tested was determined using a time-resolved fluorescence resonance energy transfer (TR-FRET) methodology. 5 nM Recombinant BTK^WT kinase, varying concentrations of inhibitor, 2 nM LanthaScreen™ Eu anti-His Antibody and 30 nM Kinase Tracer 236 was incubated in 1× LanthaScreen™ Kinase Buffer A for 5 h. Recombinant BTK^C481S kinase was purchased from SignalChem and all LanthaScreen™ components were purchased from Invitrogen. Measurements were performed in a reaction volume of 30 μL using half-area 96-well assay plates. The TR-FRET signal was read on a plate reader with an excitation wavelength of 340 nm and detection wavelengths of 615 and 665 nm. Binding affinity was determined for each compound by measuring TR-FRET signal at various concentrations of compound and plotting the relative fluorescence units against the inhibitor concentration to estimate the IC50 from log[Inhibitor] vs response using the Variable Slope model in Graphpad prism from Graphpad software (San Diego, Calif.).

[4] abbreviates: OCI-Ly10 cells, 72 h compound treatment, Resazurin.

Consider 17 compounds from US11826351B2, “Compounds useful as kinase inhibitors” (Loxo Oncology, Inc., priority 2015, dated 2023).

Where two headings read alike, the source gives them in different places.

T3 sequence (Q06187 whole entry C481S): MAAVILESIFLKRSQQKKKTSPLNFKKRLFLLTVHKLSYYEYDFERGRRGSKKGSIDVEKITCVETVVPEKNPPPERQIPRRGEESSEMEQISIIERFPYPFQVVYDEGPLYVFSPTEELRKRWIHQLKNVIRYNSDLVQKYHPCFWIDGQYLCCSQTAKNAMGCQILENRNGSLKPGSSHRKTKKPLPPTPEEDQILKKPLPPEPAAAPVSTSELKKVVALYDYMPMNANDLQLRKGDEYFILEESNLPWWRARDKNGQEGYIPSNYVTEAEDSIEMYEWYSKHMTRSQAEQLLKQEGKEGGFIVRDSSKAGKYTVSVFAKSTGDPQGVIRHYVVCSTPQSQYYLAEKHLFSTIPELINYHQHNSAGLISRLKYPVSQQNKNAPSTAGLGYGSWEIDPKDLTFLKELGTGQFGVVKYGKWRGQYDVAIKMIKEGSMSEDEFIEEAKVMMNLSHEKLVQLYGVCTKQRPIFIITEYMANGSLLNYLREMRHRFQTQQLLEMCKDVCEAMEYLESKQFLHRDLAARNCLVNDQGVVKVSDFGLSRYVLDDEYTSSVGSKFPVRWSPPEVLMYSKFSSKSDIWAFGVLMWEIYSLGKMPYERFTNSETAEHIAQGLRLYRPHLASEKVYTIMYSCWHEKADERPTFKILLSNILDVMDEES
T2 sequence (P00533 25-1210): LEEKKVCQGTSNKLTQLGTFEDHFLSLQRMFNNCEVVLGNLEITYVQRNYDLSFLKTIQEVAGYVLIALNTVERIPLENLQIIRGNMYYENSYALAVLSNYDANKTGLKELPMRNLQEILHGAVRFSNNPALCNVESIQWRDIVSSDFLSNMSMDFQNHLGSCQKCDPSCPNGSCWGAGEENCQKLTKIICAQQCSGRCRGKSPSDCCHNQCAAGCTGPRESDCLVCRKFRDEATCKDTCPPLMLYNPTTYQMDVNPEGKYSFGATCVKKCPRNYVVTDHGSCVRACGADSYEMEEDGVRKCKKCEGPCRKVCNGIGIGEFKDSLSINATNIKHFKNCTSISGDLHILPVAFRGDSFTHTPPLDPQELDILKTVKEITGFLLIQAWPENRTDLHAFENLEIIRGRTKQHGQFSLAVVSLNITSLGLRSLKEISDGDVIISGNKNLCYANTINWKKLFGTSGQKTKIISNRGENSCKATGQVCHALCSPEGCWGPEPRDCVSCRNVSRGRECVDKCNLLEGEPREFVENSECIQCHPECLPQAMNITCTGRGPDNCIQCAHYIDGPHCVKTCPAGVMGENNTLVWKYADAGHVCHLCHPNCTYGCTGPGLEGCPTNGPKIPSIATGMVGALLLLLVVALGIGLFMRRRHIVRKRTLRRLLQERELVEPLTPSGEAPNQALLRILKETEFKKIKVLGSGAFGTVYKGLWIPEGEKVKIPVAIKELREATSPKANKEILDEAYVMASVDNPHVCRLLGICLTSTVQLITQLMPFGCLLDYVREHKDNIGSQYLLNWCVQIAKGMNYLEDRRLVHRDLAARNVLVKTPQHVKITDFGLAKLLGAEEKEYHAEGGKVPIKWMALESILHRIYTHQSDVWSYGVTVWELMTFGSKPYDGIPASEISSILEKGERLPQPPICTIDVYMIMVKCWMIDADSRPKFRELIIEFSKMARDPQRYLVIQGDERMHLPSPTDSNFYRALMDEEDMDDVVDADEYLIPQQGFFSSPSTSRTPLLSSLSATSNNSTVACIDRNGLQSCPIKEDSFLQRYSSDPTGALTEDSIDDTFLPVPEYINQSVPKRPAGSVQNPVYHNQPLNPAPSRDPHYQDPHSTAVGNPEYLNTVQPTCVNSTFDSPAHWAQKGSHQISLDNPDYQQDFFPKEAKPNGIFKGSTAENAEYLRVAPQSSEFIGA
T1 sequence (Q06187 whole entry): as the sequence (Q06187 whole entry C481S) above, with S481C counted along it

For the compound `COc1ccccc1C(=O)NCc1ccc(-c2nn(C3CCCC3)c(NC(C)C)c2C(N)=O)cc1` [Example 72, 1-cyclopentyl-5-(isopropylamino)-3-[4-[[(2-methoxybenzoyl)amino]methyl]phenyl]pyrazole-4-carboxamide], the IC50 in test [1] (setting [4]) is 100 to 1000 nM; in test [2], 10 to 100 nM; on Recombinant EGFR it was 1000 to 10000 nM; in test [3] it was below 10 nM.
For `COc1ccc(F)cc1C(=O)NCc1ccc(-c2nn([C@H](C)C(F)(F)F)c(N)c2C(N)=O)cc1` (single isomer, unassigned) [Example 163b, 5-amino-3-[4-[[(5-fluoro-2-methoxy-benzoyl)amino]methyl]phenyl]-1-(2,2,2-trifluoro-1-methyl-ethyl)pyrazole-4-carboxamide] the same measures were 10 to 100 nM, below 10 nM, 1000 to 10000 nM and below 10 nM.
Consider `COc1ccccc1C(=O)NCc1ccc(-c2nn(-c3ccncc3)c(N)c2C(N)=O)cc1` [Example 54, 5-amino-3-[4-[[(2-methoxybenzoyl)amino]methyl]phenyl]-1-(4-pyridyl)pyrazole-4-carboxamide], for which the IC50 in test [1] (setting [4]) was 100 to 1000 nM; in test [2], 10 to 100 nM; on Recombinant EGFR, 1000 to 10000 nM; in test [3], below 10 nM.
For `COc1ccccc1C(=O)NCc1ccc(-c2nn(C3CCCC3)c(C)c2C(N)=O)cc1` [Example 24, 1-Cyclopentyl-3-[4-[[(2-methoxybenzoyl)amino]methyl]phenyl]-5-methyl-pyrazole-4-carboxamide] the same measures were 100 to 1000 nM, 10 to 100 nM, 1000 to 10000 nM and 10 to 100 nM.
For `COC(=O)c1ccc(-n2nc(-c3ccc(CNC(=O)c4ccccc4OC)cc3)c(C(N)=O)c2N)cc1` [Example 45, Methyl 4-[5-amino-4-carbamoyl-3-[4-[[(2-methoxybenzoyl)amino]methyl]phenyl]pyrazol-1-yl]benzoate], the IC50 is 10 to 100 nM in test [1] (setting [4]), below 10 nM in test [2], 1000 to 10000 nM on Recombinant EGFR and below 10 nM in test [3].
As to `COc1ccc(F)cc1C(=O)NCc1ccc(-c2nn(C3CCOCC3)c(N)c2C(N)=O)c(F)c1F` [Example 142, 5-amino-3-[2,3-difluoro-4-[[(5-fluoro-2-methoxy-benzoyl)amino]methyl]phenyl]-1-tetrahydropyran-4-yl-pyrazole-4-carboxamide], the IC50 in test [1] (setting [4]) is 100 to 1000 nM; in test [2], below 10 nM; on Recombinant EGFR it was 1000 to 10000 nM; in test [3], below 10 nM.
As for `COc1ccc(F)cc1C(=O)NCc1ccc(-c2nn(C3CCOCC3)c(N)c2C(N)=O)cc1F` [Example 123, 5-amino-3-[3-fluoro-4-[[(5-fluoro-2-methoxy-benzoyl)amino]methyl]phenyl]-1-tetrahydropyran-4-yl-pyrazole-4-carboxamide], the IC50 was 100 to 1000 nM in test [1] (setting [4]), below 10 nM in test [2], 1000 to 10000 nM on Recombinant EGFR and below 10 nM in test [3].
In the case of `COc1ccc(F)cc1C(=O)NCc1cc(F)c(-c2nn(C3CCCOC3)c(N)c2C(N)=O)cc1F` (centres unmarked) [Example 149, 5-amino-3-[2,5-difluoro-4-[[(5-fluoro-2-methoxy-benzoyl)amino]methyl]phenyl]-1-tetrahydropyran-3-yl-pyrazole-4-carboxamide], the IC50 in test [1] (setting [4]) was 10 to 100 nM; in test [2] it was below 10 nM; at Recombinant EGFR it was above 10000 nM; in test [3] it was below 10 nM.
As for `COc1ccccc1C(=O)NCc1ccc(-c2nn(C3CCOC3)c(N)c2C(N)=O)cc1` (centres unmarked) [Example 36, 5-Amino-3-[4-[[(2-methoxybenzoyl)amino]methyl]phenyl]-1-tetrahydrofuran-3-yl-pyrazole-4-carboxamide], the IC50 is 10 to 100 nM in test [1] (setting [4]), below 10 nM in test [2], 1000 to 10000 nM at Recombinant EGFR and below 10 nM in test [3].
As for `COc1ccccc1C(=O)NCc1ccc(-c2nn(C3CCCC3)c(N)c2C(N)=O)cc1F` [Example 93, 5-amino-1-cyclopentyl-3-[3-fluoro-4-[[(2-methoxybenzoyl)amino]methyl]phenyl]pyrazole-4-carboxamide], the IC50 in test [1] (setting [4]) was 10 to 100 nM; in test [2], below 10 nM; at Recombinant EGFR, 100 to 1000 nM; in test [3] it was below 10 nM.
On to `COc1ccccc1C(=O)NCc1ccc(-c2nn([C@H]3CC[C@H](Cl)C3)c(N)c2C(N)=O)cc1` (relative stereo) [Example 37, 5-amino-1-[(1S*,3S*)-3-chlorocyclopentyl]-3-[4-[[(2-methoxybenzoyl)amino]methyl]phenyl]pyrazole-4-carboxamide], for which the IC50 in test [1] (setting [4]) is 10 to 100 nM; in test [2], below 10 nM; on Recombinant EGFR, 100 to 1000 nM; in test [3] it was below 10 nM.
On to `COc1ccc(F)cc1C(=O)NCc1ccc(-c2nn(C3CCCOC3)c(N)c2C(N)=O)cc1` (centres unmarked) [Example 113, 5-amino-3-[4-[[(5-fluoro-2-methoxy-benzoyl)amino]methyl]phenyl]-1-tetrahydropyran-3-yl-pyrazole-4-carboxamide], for which the IC50 is 10 to 100 nM in test [1] (setting [4]), below 10 nM in test [2], 1000 to 10000 nM at Recombinant EGFR and below 10 nM in test [3].
With `COc1ccc(F)cc1C(=O)NCc1ccc(-c2nn(C(C(C)(C)C)C(F)(F)F)c(N)c2C(N)=O)cc1` (centres unmarked) [Example 194, 5-amino-1-[2,2-dimethyl-1-(trifluoromethyl)propyl]-3-[4-[[(5-fluoro-2-methoxy-benzoyl)amino]methyl]phenyl]pyrazole-4-carboxamide], the IC50 in test [1] (setting [4]) fell in the range of 100 to 1000 nM; in test [2], 10 to 100 nM; on Recombinant EGFR it was 1000 to 10000 nM; in test [3], 10 to 100 nM.
Take `CCC(n1nc(-c2ccc(CNC(=O)c3cc(F)ccc3OC)cc2)c(C(N)=O)c1N)C(F)(F)F` (centres unmarked) [Example 181, 5-amino-3-[4-[[(5-fluoro-2-methoxy-benzoyl)amino]methyl]phenyl]-1-[1-(trifluoromethyl)propyl]pyrazole-4-carboxamide]: the IC50 in test [1] (setting [4]) was 10 to 100 nM; in test [2], below 10 nM; at Recombinant EGFR, 1000 to 10000 nM; in test [3], below 10 nM.
With `COc1ccccc1C(=O)NCc1ccc(-c2nn([C@H]3CC[C@@H](O)C3)c(N)c2C(N)=O)cc1` (relative stereo) [Example 20, 5-Amino-1-[(1S*,3R*)-3-hydroxycyclopentyl]-3-[4-[[(2-methoxybenzoyl)amino]methyl]phenyl]pyrazole-4-carboxamide], the IC50 is 10 to 100 nM in test [1] (setting [4]), below 10 nM in test [2], 100 to 1000 nM on Recombinant EGFR and below 10 nM in test [3].
Regarding `COc1ccc(F)cc1C(=O)NCc1cc(F)c(-c2nn(C(C)C(F)(F)F)c(N)c2C(N)=O)cc1F` (centres unmarked) [Example 168, 5-amino-3-[2,5-difluoro-4-[[(5-fluoro-2-methoxy-benzoyl)amino]methyl]phenyl]-1-(2,2,2-trifluoro-1-methyl-ethyl)pyrazole-4-carboxamide], the IC50 is 10 to 100 nM in test [1], 10 to 100 nM in test [2], 1000 to 10000 nM at Recombinant EGFR and below 10 nM in test [3].
Take `COc1ccccc1C(=O)NCc1ccc(-c2nn(C3CCCC3)c(N)c2C(N)=O)cc1` [Example 1, 5-amino-1-cyclopentyl-3-[4-[[(2-methoxybenzoyl)amino]methyl]phenyl]pyrazole-4-carboxamide]: the IC50 in test [1] (setting [4]) is below 10 nM; in test [2] it was below 10 nM; at Recombinant EGFR, 100 to 1000 nM; in test [3], below 10 nM.
